Each block holds one molecule with its values, some of them ahead of it.
Assay: photoluminescence quantum yield (fraction); solvent given as SMILES

Compound: c1cc2c([nH]c3c4[nH]c5sccc5c4c4nsnc4c23)s1
photoluminescence quantum yield (in C1CCOC1): 0.38 | photoluminescence quantum yield (in CCOC(C)=O): 0.34 | photoluminescence quantum yield (in CN(C)C=O): 0.33 | photoluminescence quantum yield (in Cc1ccccc1): 0.42 | photoluminescence quantum yield (in ClCCl): 0.27

photoluminescence quantum yield (in C1CCOC1): 0.064
Compound: CC(C)(C)c1ccc(-c2c(-c3cccc(-n4c5ccccc5c5ccccc54)c3)c(C#N)c(-c3cccc(-n4c5ccccc5c5ccccc54)c3)c(-c3ccc(C(C)(C)C)cc3)c2-c2ccc(C(C)(C)C)cc2)cc1

photoluminescence quantum yield (in ClCCl): 0.216
Compound: CCCCCCCCCCCCN1C(=O)c2c(c3ccc4cc(-c5cccs5)c(OC)cc4c3c3c2ccc2cc(-c4cccs4)c(OC)cc23)C1=O

Compound: CC(C)c1cc(C(C)C)c(-c2nnc(-c3ccc(-n4c5ccccc5c5ccccc54)cc3)o2)c(C(C)C)c1
photoluminescence quantum yield (in Cc1ccccc1): 0.61

photoluminescence quantum yield (in ClCCl): 0.81
Compound: CCN(CC)c1ccc2c(c1)OC1=[N+](c3ccc(I)cc3)[B-](F)(F)n3c(nc4ccccc43)C1=C2

photoluminescence quantum yield (in ClCCl): 0.11
Compound: CC(C)c1cccc(C(C)C)c1N1C(=O)c2cccc3c(Oc4ccc(C(C)(C)C)cc4)ccc(c23)C1=O

photoluminescence quantum yield (in ClC(Cl)Cl): 0.22
Compound: COc1ccc(-c2nc(-c3ccc(OC)cc3)n3ccccc23)cc1

Compound: Oc1ccc2ncccc2c1
photoluminescence quantum yield (in CC#N): 0.088 | photoluminescence quantum yield (in CCCC#N): 0.086 | photoluminescence quantum yield (in CO): 0.107 | photoluminescence quantum yield (in Cc1ccccc1): 0.008 | photoluminescence quantum yield (in ClCCl): 0.043

photoluminescence quantum yield (in ClCCl): 0.028
Compound: O=c1cc(-c2ccccc2)oc(-c2ccc(-c3nc4ccccn4c3NC3CCCCC3)cc2)c1

photoluminescence quantum yield (in C1COCCO1): 0.005 | photoluminescence quantum yield (in CC#N): 0.0026 | photoluminescence quantum yield (in CCO): 0.0027 | photoluminescence quantum yield (in CCOC(C)=O): 0.003 | photoluminescence quantum yield (in O): 0.0029
Compound: COc1ccc(/C=C/C2=NC(=C\c3ccncc3)/C(=O)N2C)cc1

Compound: CCCCCCCCCCCCC(CCCCCCCCCC)Cn1c2cc(C=C(C#N)C#N)c3cccc4c5cccc6c(C=C(C#N)C#N)cc1c(c65)c2c34 (stereo not given)
photoluminescence quantum yield (in C1CCCCC1): 0.13 | photoluminescence quantum yield (in CC#N): 0.151 | photoluminescence quantum yield (in Cc1ccccc1): 0.138 | photoluminescence quantum yield (in ClCCl): 0.115

photoluminescence quantum yield (in ClC(Cl)Cl): 0.028
Compound: c1ccc2c([SiH](c3c4ccccc4cc4ccccc34)c3c4ccccc4cc4ccccc34)c3ccccc3cc2c1

photoluminescence quantum yield (in ClCCl): 0.54
Compound: C(#Cc1cccc2nsnc12)c1ccc(-n2c3ccccc3c3ccccc32)cc1

Compound: COC(=O)c1cc(=O)n(C)c2cc(-c3ccc(OC)cc3)sc12
photoluminescence quantum yield (in C1CCOC1): 0.99 | photoluminescence quantum yield (in CC#N): 0.77 | photoluminescence quantum yield (in CCO): 0.99 | photoluminescence quantum yield (in CN(C)C=O): 0.99 | photoluminescence quantum yield (in CO): 0.99 | photoluminescence quantum yield (in CS(C)=O): 0.99 | photoluminescence quantum yield (in Cc1ccccc1): 0.98 | photoluminescence quantum yield (in ClC(Cl)Cl): 0.95 | photoluminescence quantum yield (in ClCCl): 0.9

photoluminescence quantum yield (in ClC(Cl)Cl): 0.17
Compound: N#Cc1c(C#N)c2ccccc2c2ccccc12

photoluminescence quantum yield (in ClCCl): 0.785
Compound: CC1=C(c2ccccc2)C(C)=[N+]2C1=C(c1c(-c3ccccn3)nc3ccccn13)c1c(C)c(-c3ccccc3)c(C)n1[B-]2(F)F

Compound: c1ccc(-c2nc(-c3ccccc3)nc(-c3ccc(-n4c5ccccc5c5cc6c(cc54)C4(c5ccccc5-c5ccccc54)c4ccccc4-6)cc3)n2)cc1
photoluminescence quantum yield (in O=P(c1ccccc1)(c1ccccc1)c1ccccc1Oc1ccccc1P(=O)(c1ccccc1)c1ccccc1): 0.856

photoluminescence quantum yield (in ClCCl): 0.93
Compound: COc1ccc(-c2ccc3c(c2)[Si](C)(C)c2cc(-c4ccc(OC)cc4)ccc2C=C3)cc1

photoluminescence quantum yield (in CC#N): 0.69
Compound: Cc1ccc(-c2ccc(/C=C/c3ccc(F)cc3)cn2)nc1

photoluminescence quantum yield (in CC(=O)N(C)C): 0.0578
Compound: C#Cc1ccc(/C2=c3\cc/c([nH]3)=C(\c3ccc(C#C)cc3)C3=N/C(=C(/c4cc(C(C)(C)C)cc(C(C)(C)C)c4)c4cc(c[nH]4)/C(c4cc(C(C)(C)C)cc(C(C)(C)C)c4)=C4/C=CC2=N4)C=C3)cc1

photoluminescence quantum yield (in ClC(Cl)Cl): 0.19
Compound: CCCCc1ccc(-n2c3c4cc(F)ccc4nc(-c4ccc(OC)cc4)c3c3c2c2c(-c4ccc(OC)cc4)nc4ccc(F)cc4c2n3-c2ccc(CCCC)cc2)cc1

photoluminescence quantum yield (in ClCCl): 0.91
Compound: Cc1c2ccc(=[N+]3CCCCC3)cc-2oc2cc(N3CCCCC3)ccc12

photoluminescence quantum yield (in ClC(Cl)Cl): 0.06
Compound: C(#Cc1ccccc1)C(C#Cc1ccccc1)=Cc1cccc(C=C(C#Cc2ccccc2)C#Cc2ccccc2)c1

Compound: CC(C)(C)c1ccc2c(c1)B1c3cc(C(C)(C)C)ccc3Oc3cc(-n4c5ccccc5c5c6c(c7ccccc7n6-c6ccccc6)c6c(c7ccccc7n6-c6ccccc6)c54)cc(c31)O2
photoluminescence quantum yield (in Cc1ccccc1): 0.99

photoluminescence quantum yield (in CO): 0.1
Compound: COc1ccc(OC)c(C(C)=O)c1

photoluminescence quantum yield (in C1CCOC1): 0.52
Compound: COc1ccc(-c2cc3c(s2)-c2sc(-c4ccc(OC)cc4)cc2P(c2ccccc2)(c2ccccc2)=[O+][B-]3(c2c(C)cc(C)cc2C)c2c(C)cc(C)cc2C)cc1

Compound: CN(C)c1ccc(/C=C/C=C/c2nc3ccccc3s2)cc1
photoluminescence quantum yield (in CC#N): 0.0068 | photoluminescence quantum yield (in CCCCCC): 0.022 | photoluminescence quantum yield (in CCCCO): 0.0044 | photoluminescence quantum yield (in CCCO): 0.0054 | photoluminescence quantum yield (in CCO): 0.0045 | photoluminescence quantum yield (in CN(C)C=O): 0.0064 | photoluminescence quantum yield (in CO): 0.0039 | photoluminescence quantum yield (in Cc1ccccc1): 0.0088 | photoluminescence quantum yield (in ClCCl): 0.0054 | photoluminescence quantum yield (in OCC(O)CO): 0.039 | photoluminescence quantum yield (in OCCO): 0.0062

Compound: Nc1ccccc1C(=O)O
photoluminescence quantum yield (in C1CCCCC1): 0.29 | photoluminescence quantum yield (in CC#N): 0.56 | photoluminescence quantum yield (in CC(C)=O): 0.31 | photoluminescence quantum yield (in CCO): 0.59 | photoluminescence quantum yield (in CS(C)=O): 0.64 | photoluminescence quantum yield (in O): 0.6 | photoluminescence quantum yield (in OCC(F)(F)F): 0.27 | photoluminescence quantum yield (in c1ccccc1): 0.39

photoluminescence quantum yield (in CCO): 0.32
Compound: CCN(CC)c1ccc(C=Cc2nc3nc4ccccc4nc3s2)c(OC)c1

photoluminescence quantum yield (in ClC(Cl)Cl): 0.04
Compound: N=c1oc2cccc3c4c(-c5ccccc5)oc5cccc(c(c1-c1ccccc1)c23)c54

Compound: Cc1ccc(-n2c3ccccc3c3cc(C(=C(C#N)C#N)c4ccccc4)ccc32)cc1
photoluminescence quantum yield (in C1CCOC1): 0.12 | photoluminescence quantum yield (in CC#N): 0.07 | photoluminescence quantum yield (in CC(C)=O): 0.05 | photoluminescence quantum yield (in CCOC(C)=O): 0.09 | photoluminescence quantum yield (in CO): 0.01 | photoluminescence quantum yield (in CS(C)=O): 0.02 | photoluminescence quantum yield (in Cc1ccccc1): 0.14 | photoluminescence quantum yield (in ClC(Cl)Cl): 0.13

photoluminescence quantum yield (in ClCCl): 0.047
Compound: Cc1cc2cc(C)c3c4ccccc4[nH]c3c2s1

Compound: CN(C)c1ccc2nc3c(cc2c1)c(-c1ccccc1)nn3-c1ccccc1
photoluminescence quantum yield (in C1CCCCC1): 0.84 | photoluminescence quantum yield (in C1CCOC1): 0.62 | photoluminescence quantum yield (in CC#N): 0.57 | photoluminescence quantum yield (in CC(C)=O): 0.58 | photoluminescence quantum yield (in CCCCCl): 0.64 | photoluminescence quantum yield (in CCCCOCCCC): 0.77 | photoluminescence quantum yield (in CN(C)C=O): 0.46

photoluminescence quantum yield (in CC#N): 0.031 | photoluminescence quantum yield (in CO): 0.027
Compound: CN1c2ccccc2CCc2ccccc21

Compound: Fc1c(-n2c3ccccc3c3ccccc32)c(F)c(-n2c3ccccc3c3ccccc32)c(-c2nnc(-c3ccccc3)o2)c1-n1c2ccccc2c2ccccc21
photoluminescence quantum yield (in Cc1ccccc1): 0.06

photoluminescence quantum yield (in ClC(Cl)Cl): 0.29
Compound: CCOC(=O)c1ccc(/C=C/C2=[N+]3C(=C(c4ccccc4)c4ccc(/C=C/c5ccc(C(=O)OCC)o5)n4[B-]3(F)F)C=C2)o1

Compound: c1ccc(-c2nc(-c3ccccc3)nc(-c3cc(-n4c5ccccc5c5ccccc54)cc(-n4c5ccccc5c5ccccc54)c3)n2)cc1
photoluminescence quantum yield (in O=P(c1ccccc1)(c1ccccc1)c1ccc2oc3ccc(P(=O)(c4ccccc4)c4ccccc4)cc3c2c1): 0.58

Compound: Cc1ccc(C)n1-c1ccc(C#N)cc1
photoluminescence quantum yield (in C1CCOC1): 0.025 | photoluminescence quantum yield (in CCCCCC): 0.026 | photoluminescence quantum yield (in CCCCCl): 0.035 | photoluminescence quantum yield (in CCOCC): 0.019 | photoluminescence quantum yield (in ClCCl): 0.033

photoluminescence quantum yield (in ClCCl): 0.01
Compound: CN(C)c1ccc(/C=C/c2nc(N3CCOCC3)c3c([n+]2[O-])CCCC3)cc1

Compound: CN1c2ccc(C(=O)c3ccccc3)cc2Sc2cc(C(=O)c3ccccc3)ccc21
photoluminescence quantum yield (in C1CCCCC1): 0.43 | photoluminescence quantum yield (in C1CCOC1): 0.28 | photoluminescence quantum yield (in CN(C)C=O): 0.18 | photoluminescence quantum yield (in Cc1ccccc1): 0.4 | photoluminescence quantum yield (in ClC(Cl)Cl): 0.21 | photoluminescence quantum yield (in ClCCl): 0.23

photoluminescence quantum yield (in ClCCl): 0.56
Compound: C(=C\c1cc(/C=C/c2ccc(N(c3ccccc3)c3ccccc3)cc2)nc(/C=C/c2ccc(N(c3ccccc3)c3ccccc3)cc2)n1)/c1ccc(N(c2ccccc2)c2ccccc2)cc1

photoluminescence quantum yield (in ClC(Cl)Cl): 0.09
Compound: Cc1ccc(/C2=c3\cc/c(o3)=C(\c3ccc(C)cc3)c3ccc([nH]3)-c3ccc4n3[P-](=O)(=O)[N+]3=C(C=CC3=C4c3ccco3)c3ccc2[nH]3)cc1

photoluminescence quantum yield (in C1COCCO1): 0.033 | photoluminescence quantum yield (in CC#N): 0.018 | photoluminescence quantum yield (in CCO): 0.03 | photoluminescence quantum yield (in CO): 0.044 | photoluminescence quantum yield (in ClCCCl): 0.028 | photoluminescence quantum yield (in O): 0.053
Compound: Cc1cccc2nc3c(=O)[nH]c(=O)[nH]c3nc12

photoluminescence quantum yield (in CCO): 0.93
Compound: Cc1ccc(C(=O)OCc2ccc3c4cccc5cccc(c6cccc2c63)c54)cc1

photoluminescence quantum yield (in ClCCl): 0.58
Compound: c1ccc(N2N=C(c3cccc4ccccc34)CC2c2ccc3ccc4cccc5ccc2c3c45)cc1 (stereo not given)

photoluminescence quantum yield (in ClCCl): 0.031
Compound: CC(C)(C)C1CCC(=CS/C=C/c2ccc(/C=C/SC=C3CCC(C(C)(C)C)CC3)cc2)CC1 (stereo not given)

photoluminescence quantum yield (in CCO): 0.59 | photoluminescence quantum yield (in O): 0.45
Compound: CN(C)c1ccc2c(-c3cc(C(=O)[O-])ccc3C(=O)[O-])c3ccc(=[N+](C)C)cc-3oc2c1

Compound: O=P1(c2ccccc2)C(c2cc(C(F)(F)F)cc(C(F)(F)F)c2)=Cc2c3ccc4cccc5ccc(c6cc(-c7ccccc7)n1c26)c3c45 (stereo not given)
photoluminescence quantum yield (in C1CCCCC1): 0.54 | photoluminescence quantum yield (in C1CCOC1): 0.61 | photoluminescence quantum yield (in C1COCCO1): 0.62 | photoluminescence quantum yield (in CC#N): 0.63 | photoluminescence quantum yield (in CC(C)=O): 0.64 | photoluminescence quantum yield (in CO): 0.65 | photoluminescence quantum yield (in Cc1ccccc1): 0.66 | photoluminescence quantum yield (in ClC(Cl)Cl): 0.6 | photoluminescence quantum yield (in ClCCl): 0.61

photoluminescence quantum yield (in CCCCCC): 0.57 | photoluminescence quantum yield (in ClCCl): 0.76
Compound: CC(C)[Si](C#Cc1c2ccccc2c(C#C[Si](C(C)C)(C(C)C)C(C)C)c2nc3cc4c(cc3nc12)C1c2ccccc2C4c2ccccc21)(C(C)C)C(C)C

photoluminescence quantum yield (in C1CCOC1): 0.01 | photoluminescence quantum yield (in C1COCCO1): 0.01 | photoluminescence quantum yield (in CC#N): 0.01 | photoluminescence quantum yield (in CC(C)O): 0.02 | photoluminescence quantum yield (in CCO): 0.01 | photoluminescence quantum yield (in CCOC(C)=O): 0.01 | photoluminescence quantum yield (in CN(C)C=O): 0.01 | photoluminescence quantum yield (in CS(C)=O): 0.01
Compound: NS(=O)(=O)c1ccc(N2N=C(c3ccc(O)cc3)CC2c2ccc([N+](=O)[O-])cc2)cc1 (stereo not given)

— the Deep4Chem optical property database
